Experiment [1] has as its system A-431. As to the kind of experiment: Antiproliferative activity against human A431 cells assessed as growth inhibition after 72 hrs by SRB assay. The experiment is classed as functional, cell-based. As to conditions: A-431, 72 h. Background: In SRB staining, fixed cells bind dye roughly in proportion to their protein.
Experiment [2] deals with Epidermal growth factor receptor (Homo sapiens, UniProt P00533). Briefly: Inhibition of wild type EGFR domain (unknown origin) expressed in baculovirus expression system using Poly(Glu:Tyr)4:1 substrate after 60 mins by ELISA. Background: An ELISA detects its analyte on a solid surface through an enzyme-linked reagent.
The subject of experiment [3] is NCI-H1975. As to the kind of experiment: Antiproliferative activity against gefitinib-resistant human NCI-H1975 cells assessed as growth inhibition after 72 hrs by SRB assay. The format is functional, cell-based. As to conditions: NCI-H1975, 72 h.
In experiment [4] the target is Epidermal growth factor receptor (Homo sapiens, UniProt P00533, L858R/T790M). As to the kind of experiment: Inhibition of EGFR T790M/L858R double mutant (unknown origin) expressed in baculovirus expression system using Poly(Glu:Tyr)4:1 substrate after 60 mins by ELISA.

33 compounds from ChEMBL document CHEMBL3233010, “Design, synthesis and biological evaluation of novel 6-alkenylamides substituted of 4-anilinothieno[2,3-d]pyrimidines as irreversible epidermal growth factor receptor inhibitors” (Bioorg Med Chem, 2014) can be followed below.

Sequence of Epidermal growth factor receptor (Homo sapiens, UniProt P00533) (P00533 whole entry, the tested form may be a part): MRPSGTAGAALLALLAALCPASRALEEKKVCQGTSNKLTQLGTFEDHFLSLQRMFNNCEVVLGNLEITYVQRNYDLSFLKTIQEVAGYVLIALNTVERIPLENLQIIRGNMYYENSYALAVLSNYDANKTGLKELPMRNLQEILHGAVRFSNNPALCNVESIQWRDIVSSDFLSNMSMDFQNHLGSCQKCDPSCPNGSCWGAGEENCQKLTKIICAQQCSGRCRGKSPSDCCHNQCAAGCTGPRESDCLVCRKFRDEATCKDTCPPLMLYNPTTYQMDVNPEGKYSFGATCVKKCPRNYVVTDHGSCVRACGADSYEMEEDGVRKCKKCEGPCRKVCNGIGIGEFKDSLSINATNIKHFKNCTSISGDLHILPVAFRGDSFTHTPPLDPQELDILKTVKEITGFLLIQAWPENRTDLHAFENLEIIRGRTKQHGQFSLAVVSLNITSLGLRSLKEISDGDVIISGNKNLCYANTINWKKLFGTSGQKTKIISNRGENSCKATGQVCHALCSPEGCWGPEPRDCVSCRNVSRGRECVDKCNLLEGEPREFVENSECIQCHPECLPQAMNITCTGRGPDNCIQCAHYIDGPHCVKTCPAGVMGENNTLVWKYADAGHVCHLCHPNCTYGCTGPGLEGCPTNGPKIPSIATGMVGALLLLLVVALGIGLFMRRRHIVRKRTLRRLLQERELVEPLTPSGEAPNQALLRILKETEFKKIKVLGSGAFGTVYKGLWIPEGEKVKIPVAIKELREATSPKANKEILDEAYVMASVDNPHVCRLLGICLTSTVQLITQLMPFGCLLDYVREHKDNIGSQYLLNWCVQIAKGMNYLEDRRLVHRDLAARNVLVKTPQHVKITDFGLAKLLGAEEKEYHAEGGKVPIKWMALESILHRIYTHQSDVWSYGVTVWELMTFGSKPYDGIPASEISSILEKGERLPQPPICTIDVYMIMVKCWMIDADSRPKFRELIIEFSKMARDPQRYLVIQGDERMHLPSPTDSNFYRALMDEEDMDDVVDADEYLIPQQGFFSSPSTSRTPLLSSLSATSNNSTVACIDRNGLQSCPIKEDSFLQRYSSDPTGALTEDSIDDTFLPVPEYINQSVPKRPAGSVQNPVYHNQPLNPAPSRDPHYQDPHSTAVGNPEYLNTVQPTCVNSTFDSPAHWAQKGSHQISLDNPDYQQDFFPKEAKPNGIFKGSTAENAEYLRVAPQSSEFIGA
Sequence of Epidermal growth factor receptor (Homo sapiens, UniProt P00533, L858R/T790M) (P00533 25-1210 T790M/L858R limits assumed): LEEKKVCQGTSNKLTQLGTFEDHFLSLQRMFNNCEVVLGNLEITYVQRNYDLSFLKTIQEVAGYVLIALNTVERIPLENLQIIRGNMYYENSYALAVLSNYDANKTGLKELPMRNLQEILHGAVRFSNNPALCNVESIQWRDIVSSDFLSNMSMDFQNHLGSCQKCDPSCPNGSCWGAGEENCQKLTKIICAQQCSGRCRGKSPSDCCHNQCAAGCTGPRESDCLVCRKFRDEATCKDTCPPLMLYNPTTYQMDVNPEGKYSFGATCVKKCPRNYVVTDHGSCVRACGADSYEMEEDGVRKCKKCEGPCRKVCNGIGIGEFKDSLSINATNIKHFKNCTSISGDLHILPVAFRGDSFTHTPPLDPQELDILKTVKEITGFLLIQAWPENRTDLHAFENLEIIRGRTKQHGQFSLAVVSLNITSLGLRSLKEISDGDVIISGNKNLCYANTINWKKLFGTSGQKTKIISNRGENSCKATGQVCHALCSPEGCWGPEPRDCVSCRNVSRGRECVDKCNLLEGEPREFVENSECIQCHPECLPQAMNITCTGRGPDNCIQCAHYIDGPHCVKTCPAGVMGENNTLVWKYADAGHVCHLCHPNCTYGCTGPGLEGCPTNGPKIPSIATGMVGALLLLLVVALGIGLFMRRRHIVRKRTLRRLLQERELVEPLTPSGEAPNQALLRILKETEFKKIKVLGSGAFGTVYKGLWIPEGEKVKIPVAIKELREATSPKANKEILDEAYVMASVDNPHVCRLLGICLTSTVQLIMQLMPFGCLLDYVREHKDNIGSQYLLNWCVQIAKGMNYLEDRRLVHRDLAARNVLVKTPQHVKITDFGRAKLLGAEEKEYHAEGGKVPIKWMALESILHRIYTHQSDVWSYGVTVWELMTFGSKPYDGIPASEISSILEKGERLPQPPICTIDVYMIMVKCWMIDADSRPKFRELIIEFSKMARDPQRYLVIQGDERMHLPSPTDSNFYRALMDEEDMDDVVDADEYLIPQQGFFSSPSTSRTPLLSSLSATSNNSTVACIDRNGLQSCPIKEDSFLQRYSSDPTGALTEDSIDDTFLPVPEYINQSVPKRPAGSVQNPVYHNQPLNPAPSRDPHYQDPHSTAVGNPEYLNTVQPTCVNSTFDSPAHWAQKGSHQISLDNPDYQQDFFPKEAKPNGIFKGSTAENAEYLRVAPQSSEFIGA

`CCN1CCN(C/C=C/C(=O)Nc2cc3c(Nc4ccc(F)c(Cl)c4)ncnc3s2)CC1`: the IC50 (usually the point on the concentration scale where inhibition reaches its midpoint) is 4.37 µM in experiment [1], 0.035 µM in experiment [2], 20.6 µM in experiment [3] and 0.004 µM in experiment [4].
`O=C(CN1CCN(CCO)CC1)Nc1cc2c(Nc3ccc(F)c(Cl)c3)ncnc2s1`: the IC50 is 10.2 µM in experiment [1], 0.77 µM in experiment [2], more than 100 µM in experiment [3] and more than 10 µM in experiment [4].
Consider `CN1CCN(C/C=C/C(=O)Nc2cc3c(Nc4ccc(F)c(Cl)c4)ncnc3s2)CC1`, for which the IC50 in experiment [1] is 4.47 µM; in experiment [2], 0.124 µM; in experiment [3], 34.8 µM; in experiment [4], 0.003 µM.
The matching figures for `O=C(/C=C/CN1CCS(=O)(=O)CC1)Nc1cc2c(Nc3ccc(F)c(Cl)c3)ncnc2s1`: 8.72 µM, 0.029 µM, 75.4 µM and 0.007 µM.
With `CCC(CC)C(=O)Nc1cc2c(Nc3ccc(F)c(Cl)c3)ncnc2s1`, the IC50 in experiment [1] was 22.8 µM; in experiment [2] it was more than 10 µM; in experiment [3] it was more than 100 µM; in experiment [4] it was more than 10 µM.
Regarding `O=C(CN1CCC(CCO)CC1)Nc1cc2c(Nc3ccc(F)c(Cl)c3)ncnc2s1`, the IC50 is 9.48 µM in experiment [1], 0.542 µM in experiment [2], 83.4 µM in experiment [3] and more than 10 µM in experiment [4].
As to `CC(C)N1CCN(C/C=C/C(=O)Nc2cc3c(Nc4ccc(F)c(Cl)c4)ncnc3s2)CC1`, the IC50 in experiment [1] turned out to be 4.78 µM; in experiment [2] it was 0.034 µM; in experiment [3], 20.7 µM; in experiment [4], 0.002 µM.
For `CCN(CC)CCN(C)C/C=C/C(=O)Nc1cc2c(Nc3ccc(F)c(Cl)c3)ncnc2s1`, the IC50 in experiment [1] is 4.22 µM; in experiment [2] it was 0.139 µM; in experiment [3] it was more than 100 µM; in experiment [4], 0.354 µM.
In the case of `O=C(/C=C/CNCC1COC1)Nc1cc2c(Nc3ccc(F)c(Cl)c3)ncnc2s1`, the half-inhibitory concentration (IC50) in experiment [1] turned out to be 3.93 µM; in experiment [2], 0.01 µM; in experiment [3] it was 62.2 µM; in experiment [4], 0.022 µM.
The matching figures for `CN1CCN(CC(=O)Nc2cc3c(Nc4ccc(F)c(Cl)c4)ncnc3s2)CC1`: 1.7 µM, 3.4 µM, 21.5 µM and more than 10 µM.
For the compound `COC(=O)CCCC(=O)Nc1cc2c(Nc3ccc(F)c(Cl)c3)ncnc2s1`, the IC50 was 27.8 µM in experiment [1], more than 10 µM in experiment [2], more than 100 µM in experiment [3] and more than 10 µM in experiment [4].
As for `CCCCC(=O)Nc1cc2c(Nc3ccc(F)c(Cl)c3)ncnc2s1`, the IC50 in experiment [1] is 14.2 µM; in experiment [2], more than 10 µM; in experiment [3], more than 100 µM; in experiment [4] it was more than 10 µM.
`CN(C)CCCN(C)CC(=O)Nc1cc2c(Nc3ccc(F)c(Cl)c3)ncnc2s1`: the IC50 in experiment [1] worked out at 2.38 µM; in experiment [2], 5.22 µM; in experiment [3], 19.1 µM; in experiment [4], 1.7 µM.
Regarding `COCCNC/C=C/C(=O)Nc1cc2c(Nc3ccc(F)c(Cl)c3)ncnc2s1`, the 50% inhibitory concentration (IC50) was 4.85 µM in experiment [1], 1.04 µM in experiment [2], 41.7 µM in experiment [3] and 0.005 µM in experiment [4].
Regarding `O=C(CCl)Nc1cc2c(Nc3ccc(F)c(Cl)c3)ncnc2s1`, the IC50 worked out at 3.58 µM in experiment [1], 0.04 µM in experiment [2], 3.01 µM in experiment [3] and 0.71 µM in experiment [4].
For the compound `O=C(/C=C/CN1CC2(COC2)C1)Nc1cc2c(Nc3ccc(F)c(Cl)c3)ncnc2s1`, the IC50 was 0.86 µM in experiment [1], 0.007 µM in experiment [2], 5.54 µM in experiment [3] and 0.043 µM in experiment [4].
As to `C/C=C(\C)C(=O)Nc1cc2c(Nc3ccc(F)c(Cl)c3)ncnc2s1`, the IC50 was 24.2 µM in experiment [1], 6.41 µM in experiment [2], more than 100 µM in experiment [3] and more than 10 µM in experiment [4].
Consider `O=C(/C=C/CN1CC(O)C1)Nc1cc2c(Nc3ccc(F)c(Cl)c3)ncnc2s1`, for which the 50% inhibitory concentration (IC50) was found to be 1.65 µM in experiment [1], 0.038 µM in experiment [2], 6.83 µM in experiment [3] and 0.305 µM in experiment [4].
Regarding `CS(=O)(=O)CCNC/C=C/C(=O)Nc1cc2c(Nc3ccc(F)c(Cl)c3)ncnc2s1`, the IC50 in experiment [1] stood at 19.2 µM; in experiment [2] it was 0.003 µM; in experiment [3] it was 44.9 µM; in experiment [4] it was 0.068 µM.
For `COC(=O)CC(=O)Nc1cc2c(Nc3ccc(F)c(Cl)c3)ncnc2s1`, the IC50 in experiment [1] is 21.3 µM; in experiment [2], 5 µM; in experiment [3], more than 100 µM; in experiment [4], more than 10 µM.
In the case of `CN(C)CCCNC/C=C/C(=O)Nc1cc2c(Nc3ccc(F)c(Cl)c3)ncnc2s1`, the IC50 in experiment [1] was 25.4 µM; in experiment [2] it was 1.2 µM; in experiment [3] it was more than 100 µM; in experiment [4], 0.0007 µM.
On to `CCN(CC)C/C=C/C(=O)Nc1cc2c(Nc3ccc(F)c(Cl)c3)ncnc2s1`, for which the IC50 in experiment [1] came to 0.64 µM; in experiment [2], 0.008 µM; in experiment [3], 11.5 µM; in experiment [4] it was 0.035 µM.
The matching figures for `CN(C)CCCC(=O)Nc1cc2c(Nc3ccc(F)c(Cl)c3)ncnc2s1`: 3.48 µM, 0.799 µM, 29.6 µM and 1.8 µM.
The matching figures for `O=C(/C=C/CN1CCC(F)(F)C1)Nc1cc2c(Nc3ccc(F)c(Cl)c3)ncnc2s1`: 3.69 µM, 0.028 µM, 15.8 µM and 1.76 µM.
Taken in the same sequence, the figures for `CN(C)CCCN(C)C/C=C/C(=O)Nc1cc2c(Nc3ccc(F)c(Cl)c3)ncnc2s1` were 3.41 µM, 0.093 µM, more than 100 µM and 1.04 µM.
With `O=C(/C=C/CN1CC2(CCOCC2)C1)Nc1cc2c(Nc3ccc(F)c(Cl)c3)ncnc2s1`, the IC50 in experiment [1] worked out at 13.4 µM; in experiment [2], 2.16 µM; in experiment [3], 39.2 µM; in experiment [4], 2.25 µM.
In the case of `C=CCOC(=O)Nc1cc2c(Nc3ccc(F)c(Cl)c3)ncnc2s1`, the IC50 is 26.6 µM in experiment [1] and 90.2 µM in experiment [3].
Regarding `O=C(/C=C/CNC1CCOCC1)Nc1cc2c(Nc3ccc(F)c(Cl)c3)ncnc2s1`, the IC50 amounted to 2.21 µM in experiment [1], 0.02 µM in experiment [2], 7.05 µM in experiment [3] and 0.032 µM in experiment [4].
As to `COC(CN(C)C/C=C/C(=O)Nc1cc2c(Nc3ccc(F)c(Cl)c3)ncnc2s1)OC`, the half-maximal inhibitory concentration (IC50) in experiment [1] turned out to be 0.43 µM; in experiment [2] it was 0.002 µM; in experiment [3] it was 4.89 µM; in experiment [4], 0.061 µM.
Take `CSC1CCN(C/C=C/C(=O)Nc2cc3c(Nc4ccc(F)c(Cl)c4)ncnc3s2)CC1`: the IC50 in experiment [1] stood at 1.13 µM; in experiment [2], 0.018 µM; in experiment [3], 5.22 µM; in experiment [4], 0.026 µM.
The matching figures for `CN(C)CCN(C)CC(=O)Nc1cc2c(Nc3ccc(F)c(Cl)c3)ncnc2s1`: 1.59 µM, 4.29 µM, 17.6 µM and more than 10 µM.
Take `O=C(/C=C/CNCc1ncccn1)Nc1cc2c(Nc3ccc(F)c(Cl)c3)ncnc2s1`: the IC50 worked out at 3.24 µM in experiment [1], 0.008 µM in experiment [2], 53 µM in experiment [3] and 0.055 µM in experiment [4].
For the compound `O=C(/C=C/CN1CCC(F)CC1)Nc1cc2c(Nc3ccc(F)c(Cl)c3)ncnc2s1`, the IC50 stood at 2.4 µM in experiment [1] and 10.8 µM in experiment [3].
